Data taken from publication PMC4366844, “Biochemical and Pharmacological Characterizations of ESI-09 Based EPAC Inhibitors: Defining the ESI-09 “Therapeutic Window”” (Scientific Reports, 2015).
≈ marks a conversion by molar mass, not a printed value. Where “and” joins values, the source holds several entries; their conditions need not be identical. Equal entries are not always repeated. Entries after “also recorded” stand apart in the source; their conditions may differ. Where two headings read alike, the source gives them in different places.

Assays:
EPAC2 [1] = settings: cited from earlier work
EPAC2 [2] = biological target: T1, EPAC2 (Mus musculus, UniProt Q9EQZ6); assay: 8-NBD-cAMP competition assay; format: binding
T1 construct: made in house
T1 sequence (Q9EQZ6 1-1011): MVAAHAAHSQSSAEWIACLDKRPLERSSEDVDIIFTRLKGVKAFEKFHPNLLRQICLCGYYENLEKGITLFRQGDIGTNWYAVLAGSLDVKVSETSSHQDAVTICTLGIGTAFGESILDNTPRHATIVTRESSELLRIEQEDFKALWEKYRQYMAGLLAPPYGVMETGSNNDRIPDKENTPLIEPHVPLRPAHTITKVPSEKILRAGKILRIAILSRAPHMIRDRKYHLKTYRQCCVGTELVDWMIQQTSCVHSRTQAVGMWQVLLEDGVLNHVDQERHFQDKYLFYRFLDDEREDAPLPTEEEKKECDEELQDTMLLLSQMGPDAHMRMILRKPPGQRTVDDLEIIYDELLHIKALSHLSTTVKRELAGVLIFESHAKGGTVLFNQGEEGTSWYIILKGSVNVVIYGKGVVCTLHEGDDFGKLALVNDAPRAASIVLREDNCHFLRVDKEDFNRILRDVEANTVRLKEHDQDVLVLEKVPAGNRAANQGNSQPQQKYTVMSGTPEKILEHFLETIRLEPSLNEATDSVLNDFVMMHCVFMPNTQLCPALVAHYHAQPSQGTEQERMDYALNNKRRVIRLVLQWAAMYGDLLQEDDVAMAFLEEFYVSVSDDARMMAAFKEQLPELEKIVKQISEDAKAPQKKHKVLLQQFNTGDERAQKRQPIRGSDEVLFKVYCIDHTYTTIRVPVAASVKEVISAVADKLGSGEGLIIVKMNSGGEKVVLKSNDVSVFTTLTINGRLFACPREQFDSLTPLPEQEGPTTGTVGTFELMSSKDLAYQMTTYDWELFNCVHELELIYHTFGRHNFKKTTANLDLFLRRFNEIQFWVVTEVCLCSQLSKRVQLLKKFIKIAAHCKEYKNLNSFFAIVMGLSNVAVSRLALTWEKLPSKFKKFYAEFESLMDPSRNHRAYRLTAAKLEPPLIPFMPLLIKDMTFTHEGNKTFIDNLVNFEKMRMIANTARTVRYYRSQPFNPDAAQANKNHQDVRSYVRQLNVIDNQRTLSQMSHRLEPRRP
Description: Test compounds at various concentrations were added to the reaction mix, and fluorescence intensity signals from the 8-NBD probe before and after the addition of test compounds was monitored using a SpectaMaxM2 microplate reader (Molecular Devices, Silicon Valley, CA, USA) with excitation/emission wavelengths set at 470/540 nm.

EPAC2 [3] = biological target: T1, EPAC2; assay: In vitro GEF activity assay (Rap1b-BODIPY-GDP), EPAC2; format: biochemical; settings: for mode of inhibition toward cAMP: cAMP titration with 5 µM ESI-09 or 1 µM HJC0726
[4] = Solubility measurement by HPLC analysis; format: physicochemical
Description: ESI-09 and its analogs were synthesized following the recently reported synthetic procedures. The solubility of the selected compounds was measured by HPLC analysis following the reported protocol.

EPAC2 [5] = biological target: T1, EPAC2; assay: Protein thermal denaturation assay (Sypro Orange), EPAC2
Description: Thermal denaturation assay was performed using a BioRad CFX96 Touch^TM Real-Time PCR Detection system as described previously. […] Melting temperatures (Tm) were calculated by fitting the sigmoidal melt curve to the Boltzmann equation as described using GraphPad Prism, with R^2 values of >0.99[40].

EPAC1h 149-318 = biological target: T2, EPAC1h 149-318 (Homo sapiens, UniProt O95398); assay: {15N,1H} HSQC NMR of EPAC1 cAMP binding domain
T2 construct: the CBD of human EPAC1 (aa. 149-318); made in house
T2 sequence (O95398 149-318 isoform O95398-3): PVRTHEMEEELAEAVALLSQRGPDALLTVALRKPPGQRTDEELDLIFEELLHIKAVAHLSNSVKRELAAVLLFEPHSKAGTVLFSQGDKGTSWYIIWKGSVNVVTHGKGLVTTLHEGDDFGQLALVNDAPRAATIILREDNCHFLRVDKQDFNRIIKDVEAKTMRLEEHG
Source text: In addition to the thermo-unfolding experiments, {^15N, ^1H} Heteronuclear Single Quantum Coherence (HSQC) spectra were acquired to characterize the interaction between ESI-09 and the CBD of human EPAC1 (aa. 149-318) and address whether ESI-09 acts as a non-specific denaturant. The {^15N, ^1H} chemical shifts serve as excellent sensors for protein structure and dynamics as they provide information about the local chemical environment surrounding the amides of every amino acid (except prolines) within the protein. EPAC1h (149-318) has already been extensively analyzed by NMR spectroscopy. It results in HSQC spectra with well-dispersed peaks, which are representative of a fully folded protein (Fig. 5A). […]
EPAC1h 149-318 was expressed and purified using previously documented protocols[24][25][26][27] and dialyzed into NMR buffer (50 mM Tris, 50 mM NaCl, 2 mM EDTA, 2 mM EGTA, 1 mM DTT and 0.02% NaN3, pH 7.6). […] Gradient- and sensitivity- enhanced {^15N, ^1H} heteronuclear single quantum coherence (HSQC) spectra with 128 (t1) and 1024 (t2) complex points and spectral widths of 31.82 and 14.06 ppm for the ^15N and ^1H dimensions, respectively, were recorded with 8 scans and a recycle delay of 1 s. […] All spectra were processed with NMRPipe[41] and analyzed in Sparky[42].

fatal rickettsioses = settings: mice, daily dose of 10 mg/kg IP or 50 mg/kg oral gavage; cited from earlier work
[6] = tested on: ovalbumin-induced oral tolerance; settings: mice, daily dose of 10 mg/kg IP or 50 mg/kg oral gavage; cited from earlier work
[7] = tested on: pancreatic ductal adenocarcinoma; settings: in vivo administration; cited from earlier work
[8] = design: method as in Our recent studies; settings: ref Our recent studies; cited from earlier work
full-length EPAC1 = biological target: T3, full-length EPAC1 (Homo sapiens, UniProt O95398); assay: In vitro GEF activity assay (Rap1b-BODIPY-GDP), EPAC1; format: biochemical; settings: vs ESI-09
T3 construct: made in house
T3 sequence (O95398 1-881 isoform O95398-3): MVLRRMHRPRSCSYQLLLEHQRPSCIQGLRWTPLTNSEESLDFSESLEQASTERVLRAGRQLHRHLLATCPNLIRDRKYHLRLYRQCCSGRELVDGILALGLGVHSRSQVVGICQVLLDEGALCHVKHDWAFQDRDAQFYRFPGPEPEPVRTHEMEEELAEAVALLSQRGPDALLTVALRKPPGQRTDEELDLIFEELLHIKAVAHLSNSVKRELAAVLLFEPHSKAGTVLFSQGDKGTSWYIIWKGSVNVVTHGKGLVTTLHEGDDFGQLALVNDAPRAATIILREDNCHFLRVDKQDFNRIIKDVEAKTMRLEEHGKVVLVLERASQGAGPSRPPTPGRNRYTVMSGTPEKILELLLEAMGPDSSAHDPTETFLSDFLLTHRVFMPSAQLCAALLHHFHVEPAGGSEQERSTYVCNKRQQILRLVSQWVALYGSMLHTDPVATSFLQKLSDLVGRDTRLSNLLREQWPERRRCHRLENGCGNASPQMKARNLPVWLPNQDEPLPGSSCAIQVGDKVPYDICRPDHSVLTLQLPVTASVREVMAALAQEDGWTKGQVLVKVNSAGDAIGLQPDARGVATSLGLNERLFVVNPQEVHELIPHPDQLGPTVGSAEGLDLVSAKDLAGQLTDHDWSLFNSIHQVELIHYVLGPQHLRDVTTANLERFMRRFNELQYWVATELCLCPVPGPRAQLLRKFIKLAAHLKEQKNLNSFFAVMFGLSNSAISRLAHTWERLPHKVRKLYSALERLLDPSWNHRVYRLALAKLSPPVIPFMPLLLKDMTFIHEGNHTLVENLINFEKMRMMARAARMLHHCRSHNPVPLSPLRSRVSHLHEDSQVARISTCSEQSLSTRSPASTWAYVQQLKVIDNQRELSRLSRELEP
Source text: The guanine nucleotide exchange activity of EPAC proteins can be biochemically determined using a coupled exchange assay, in which Rap1 loaded with a fluorescent GDP analog, 2′-/3′-O-(N′-methylanthraniloyl)guanosine-5′-O-diphosphate (MANT-GDP), is used as the substrate. The exchange of Rap1-bound MANT-GDP by free unlabeled GDP leads to a decrease in fluorescence as MANT-GDP contains an environment sensitive fluorophore, MANT, whose fluorescence intensity increases upon binding to Rap1. However, the MANT-GDP based GEF assay is not well suited for ESI-09 analogs because they absorb lights within the excitation emission wavelengths of the fluorophore.
Recombinant full-length human EPAC1, mouse EPAC2 and C-terminal truncated Rap1B(1-167) were purified as described previously.
In vitro EPAC GEF activity was measured as previously described with the exception that purified Rap1B(1-167) was loaded with BODIPY-GDP instead of MANT-GDP[39]. […] The exchange reaction was monitored using a Spectramax M2 Plate Reader (Molecular Devices) with the excitation and emission wavelengths set at 485 and 515 nm, respectively. […]

[9] = 50 nM EPAC2, 60 nM 8-NBD-cAMP, read-out: IC50, potency in competing with 8-NBD-cAMP binding to EPAC2
[10] = water, read-out: Solubility in water (converted)

For `Cc1ccc(S(=O)(=O)c2c(C)cc(C)cc2C)cc1` [ESI-05], the EPAC isoform selectivity (EPAC2 [1]) is listed as “exclusively selective for EPAC2”.

With `CC(C)(C)c1cc(C(=O)C(C#N)=NNc2cccc(Cl)c2)no1` [ESI-09, 3-[5-(tert-butyl)isoxazol-3-yl]-2-[2-(3-chlorophenyl) hydrazono] -3-oxopropanenitrile] the IC50 (EPAC2 [2]; [9]) was 9 ± 1.2 µM, the “mode of inhibition toward cAMP” value (EPAC2 [3]) was “reversible competitive EPAC2 inhibitors” and the solubility ([4]; ethanol, organic solvent or mixture, ethanol, read-out: Solubility in ethanol (converted)) was 15000 µg/mL and 45300 µM. For the same compound, the solubility [4, 10] was 5.95 ± 0.83 µg/mL (≈ 18 µM), the “effect on Tm of EPAC2” value (EPAC2 [5]; ESI-09 1-20 µM, no cAMP) was “didn't shift the Tm to lower temperature; also recorded: no significant difference in thermo-denaturation” and the “effect on Tm of EPAC2” value (EPAC2 [5]; ESI-09 in the presence of 100 µM cAMP) was “didn't lead to further changes in Tm”. For the same compound, the “effect on HSQC spectrum of EPAC1h 149-318” value (EPAC1h 149-318; 50 μM ESI-09, 100 μM protein) was “Only minor chemical shift changes”, the “effect on HSQC spectrum of EPAC1h 149-318” value (EPAC1h 149-318; 500 μM ESI-09, 100 μM protein) was “almost every peak broadens beyond detection” and the “effect in fatal rickettsioses” value (fatal rickettsioses) was “protecting mice from fatal rickettsioses”. For the same compound, the “effect on ovalbumin-induced oral tolerance” value [6] was “compromising ovalbumin-induced oral tolerance”, the “effect on pancreatic ductal adenocarcinoma invasion and metastasis” value [7] was “inhibits pancreatic ductal adenocarcinoma invasion and metastasis” and the bioavailability [8] was “excellent bioavailability”.

Work on `CC(C)(C)c1cc(C(=O)/C(C#N)=N/Nc2ccccc2Cl)no1` [HJC0693] yielded an IC50 (EPAC2 [2]; [9]) of 28.3 ± 4 µM.

With `CC(C)(C)c1cc(C(=O)/C(C#N)=N/Nc2ccc(Cl)cc2)no1` [HJC0694] the IC50 (EPAC2 [2]; [9]) was 26.5 ± 4.1 µM.

In the case of `CC(C)(C)c1cc(C(=O)/C(C#N)=N/Nc2ccccc2)no1` [HJC0695], the IC50 (EPAC2 [2]) is reported as 59.8 ± 9.4 µM.

Compound `CC(C)(C)c1cc(C(=O)/C(C#N)=N/Nc2cc(Cl)ccc2Cl)no1` [HJC0696] has an IC50 (EPAC2 [2]; [9]) of 7.3 ± 1.2 µM.

For `CC(C)(C)c1cc(C(=O)/C(C#N)=N/Nc2cc(Cl)cc(Cl)c2)no1` [HJC0726], the IC50 (EPAC2 [2]; [9]) was 1.9 ± 0.3 µM, the “increase in potency relative to ESI-09 in the 8-NBD-cAMP competition assay” value (EPAC2 [2]; vs ESI-09) was 5 fold and the “mode of inhibition toward cAMP” value (EPAC2 [3]) was “reversible competitive EPAC2 inhibitors”. The “potency relative to ESI-09 in inhibiting EPAC2” value (EPAC2 [3]; vs ESI-09) was “five-fold more potent”, the “potency relative to ESI-09 in inhibiting EPAC1” value (full-length EPAC1) was “five-fold more potent” and the solubility ([4]; ethanol, organic solvent or mixture, read-out: Solubility in ethanol (converted)) was 6800 µg/mL and 18600 µM. The solubility [4, 10] was 45.4 µg/mL and 124 µM.

Compound `CC(C)(C)c1cc(C(=O)/C(C#N)=N/Nc2cccc(Cl)c2Cl)no1` [HJC0750] has an IC50 (EPAC2 [2]; [9]) of 35.6 ± 7.8 µM.

`CC(C)(C)c1cc(C(=O)/C(C#N)=N/Nc2ccc(Cl)c(Cl)c2)no1` [HJC0777] showed an IC50 (EPAC2 [2]; [9]) of 3 ± 0.6 µM.

In the case of `Nc1ncnc2c1ncn2[C@@H]1O[C@@H]2COP(=O)(O)O[C@H]2[C@H]1O` [cAMP, reference compound], the “melting temperature Tm of EPAC2” value (EPAC2 [5]; in the presence of 100 µM cAMP (about 48°C without)) is reported as “around 46 °C”.
